# Source: US9403874B2, “Peptides and use thereof” (IL YANG PHARM. CO.,LTD., priority 2012, dated 2016)
# What was measured:
# IL-10 = assay: Reduction of IL-10 secretion in activated B cells (ELISA); type: cell-based; settings: 100 ng/me of peptide; EBV-infected B cells stimulated with anti-CD150; ELISA of culture supernatant
# Experimental: (§1) In order to determine the activity of the novel peptides synthesized in Example 1 for reducing the secretion of inflammatory cytokines, the activated pathogenic B cells were treated with each of the 18 types of synthesized novel peptides and the reduction in secretion of inflammatory cytokines from the B cells was monitored.
# (§2) Specifically, in order to determine whether the novel peptides could weaken the pathogenic B cells which are involved in the development of disease symptoms, the in vitro B cells model which is similar to the joint infiltrative B cells of rheumatoid arthritis was used. The activated pathogenic B cell was generated by stimulating Ebstein Barr virus (EBV)-infected B cells with anti-CD150 antibodies, and the cells were treated with […] of each of the 18 types of novel peptide.
# (§3) In order to confirm the effect of 18 types of novel peptides in reducing inflammatory cytokines, the secretion amount of various cytokines (IL-1A, IL-1B, IL-2, IL-4, IL-5, IL-6, IL-8, IL-10, IL-12A, IL-13, IL-17A, GM-CSF, IL-34) secreted from the activated B cells was measured. The supernatants of B cell culture were analyzed enzyme-linked immunosorbent assay (ELISA), and the difference in absorbance (450 nm-570 nm) of the color developing reagent was measured as test results. Based on the measured difference in absorbance (450 nm-570 nm) of the color developing reagent, the absorbance of cytokines secreted when treated with the 18 types of novel […] was calculated in percentage, while setting the absorbance corresponding to the cytokines secreted from the activated B cells stimulated by anti-CD150 as 100%.
# IL-2 = assay: Reduction of IL-2 secretion in activated B cells (ELISA); type: cell-based; settings: 100 ng/me of peptide; EBV-infected B cells stimulated with anti-CD150; ELISA of culture supernatant
# Experimental: as §1, §2, §3
# IL-12A = assay: Reduction of IL-12A secretion in activated B cells (ELISA); type: cell-based; settings: 100 ng/me of peptide; EBV-infected B cells stimulated with anti-CD150; ELISA of culture supernatant
# Experimental: as §1, §2, §3
# IL-6 = assay: Reduction of IL-6 secretion in activated B cells (ELISA); type: cell-based; settings: 100 ng/me of peptide; EBV-infected B cells stimulated with anti-CD150; ELISA of culture supernatant
# Experimental: as §1, §2, §3
# IL-4 = assay: Reduction of IL-4 secretion in activated B cells (ELISA); type: cell-based; settings: 100 ng/me of peptide; EBV-infected B cells stimulated with anti-CD150; ELISA of culture supernatant
# Experimental: as §1, §2, §3
# IL-17A = assay: Reduction of IL-17A secretion in activated B cells (ELISA); type: cell-based; settings: 100 ng/me of peptide; EBV-infected B cells stimulated with anti-CD150; ELISA of culture supernatant
# Experimental: as §1, §2, §3
# [1] = tested on: collagen-induced arthritis mouse model; assay: Collagen-induced arthritis mouse model; type: in vivo
# Experimental: In order to investigate the therapeutic effect of the peptide SIS-1, which is a representative peptide of the 18 types of novel peptides prepared in Example 1 against a representative autoimmune disease, arthritis, the experiment was performed using the collagen-induced arthritis mouse model of the literature (Nature, 283, pp 666-668, 1980; Arthritis Rheum, 46, pp 793-801, 2002).
# The collagen-induced arthritis (CIA) is the model with arthritis of autoimmune disease type having similar characteristics as human rheumatoid arthritis and it was prepared by the following method.
# The 100 μg of bovine type II collagen (Chondrex four, United States) was emulsified by mixing it with Freund's complete adjuvant (Chondrex, USA), and 7-week-old DBA/1 mouse ([…], male, central laboratory animals, Korea) was immunized by injecting the emulsified collagen solution intradermally at the tail region. On the 14th day of the first immunization, 50 μg of bovine type II collagen (Chondrex four, United States) was emulsified by mixing it with Freund's complete adjuvant (Chondrex, USA), and the second immune (boosting) response was induced by injecting the same intradermally at the tail region.
# The novel peptide SIS-1 and a control drug, dexamethasone (DEX), were intraperitoneally administered three times a week from the next day of inducing the second immune response, and the control group (CIA) was treated with PBS.
# In order to monitor the development of arthritis, the thickness of foot was measured using loop handle thickness gauge (Mitutoyo) while observing the weight change and the level of pathogenesis. In addition, the severity of the joint inflammation was assessed three times a week by two observers without knowing the contents of the experiment. Assessment of arthritis was performed by adding the scores for four legs per one mouse according to the following criteria, based on the arthritis progression index by Rossoliniec, et al. and then by taking the average of the values measured by two observers. The score and criteria for assessing arthritis are as follows:
# 0 point: no edema or swelling
# 1 point: mild edema and redness confined to foot or ankle joint
# 2 points: mild edema and redness in ankle joint through metatarsal
# 3 points: moderate edema and redness in ankle joint through metatarsal
# 4 points: edema and redness through the whole leg, and appearance of acampsia
# The maximum arthritis index is 4 points per leg, and the maximum disease index per mouse is 16.
# In order to determine the damage in the cartilage of joints, the histological examination was performed after completion of the test. On the 9th week of the animal model test, after the test animal was killed, the hind leg of the mouse hind was fixed with 10% formalin and coated with paraffin after removing compounds of calcium from the bones. Joint section was prepared and stained with hematoxylin and eosin.
# [2] = tested on: TPA-induced ear edema mouse model; assay: TPA-induced ear edema mouse model; type: in vivo; settings: 6 hours after TPA application, intraperitoneal, twice
# From the text: The present inventors confirmed that the peptides of the present invention are effective in alleviating inflammation invivo, along with reduction of the secretion of inflammatory cytokines as confirmed in Example 2. To be specific, in order to identify the anti-inflammatory effect of the peptide SIS-1, which is a representative peptide of 18 types of novel peptides prepared in Example 1, the present inventors used the method for evaluating the mouse ear edema wherein 12-O-tetradecanoylphorbol-13-acetate (TPA) induces acute inflammation as described in the literature (Eur J Pharmacol. 2011: 15; 672(1-3):175-179).
# The TPA-induced ear edema mouse model is an animal model where erythema and edema caused by acute inflammation can be observed and it was prepared by the following method. The 24 mice of 5-week-old ICR mouse ([…], mal, central laboratory animals, Korea) were divided into 6 mice per group, and their hairs of both ears were removed before applying the sample. […]
# The anti-inflammatory effect of the peptide SIS-1 was determined by observing the degree of edema inhibition as compared to the control group injected with vehicle. After 6 hours of TPA application, pictures of both ears were taken to determine the degree of ear edema, and the degree of inflammation alleviated was determined by measuring the thickness and weight per certain area of ear.
# IL-5 = assay: Reduction of IL-5 secretion in activated B cells (ELISA); type: cell-based; settings: 100 ng/me of peptide; EBV-infected B cells stimulated with anti-CD150; ELISA of culture supernatant
# Experimental: as §1, §2, §3
# IL-8 = assay: Reduction of IL-8 secretion in activated B cells (ELISA); type: cell-based; settings: 100 ng/me of peptide; EBV-infected B cells stimulated with anti-CD150; ELISA of culture supernatant
# Experimental: as §1, §2, §3
# IL-34 = assay: Reduction of IL-34 secretion in activated B cells (ELISA); type: cell-based; settings: 100 ng/me of peptide; EBV-infected B cells stimulated with anti-CD150; ELISA of culture supernatant
# Experimental: as §1, §2, §3
# [3] = tested on: antibodies specific to bovine type II collagen; assay: Serological analysis in collagen-induced arthritis mice (ELISA); type: in vivo, mouse; settings: serum of CIA mice
# Experimental: In order to determine the therapeutic effect of the novel peptide SIS-1 for arthritis, enzyme-linked immunosorbent assay (ELISA) was performed to measure the antibodies specific to bovine type II collagen with the serological test. As mentioned in the literature, IgG antibody, known as the rheumatoid factor (RF), or subtype of IgG (IgG1 and IgG2a) and IgM autoantibody are known to form immune complexes, cause inflammation, and develop the lesions of rheumatoid arthritis (Journal of Ethnopharmacology 112 (2007) 408).
# After diluting the serum of each test group in a ratio of 1:25000 (IgG) or 1:10000 (IgG1, IgG2a, IgM), the titer of serum autoantibody specific to type II collagen was measured.
# IL-13 = assay: Reduction of IL-13 secretion in activated B cells (ELISA); type: cell-based; settings: 100 ng/me of peptide; EBV-infected B cells stimulated with anti-CD150; ELISA of culture supernatant
# Experimental: as §1, §2, §3
# IL-1A = assay: Reduction of IL-1A secretion in activated B cells (ELISA); type: cell-based; settings: 100 ng/me of peptide; EBV-infected B cells stimulated with anti-CD150; ELISA of culture supernatant
# Experimental: as §1, §2, §3
# IL-1B = assay: Reduction of IL-1B secretion in activated B cells (ELISA); type: cell-based; settings: 100 ng/me of peptide; EBV-infected B cells stimulated with anti-CD150; ELISA of culture supernatant
# Experimental: as §1, §2, §3
# GM-CSF = assay: Reduction of GM-CSF secretion in activated B cells (ELISA); type: cell-based; settings: 100 ng/me of peptide; EBV-infected B cells stimulated with anti-CD150; ELISA of culture supernatant
# Experimental: as §1, §2, §3
sequence,measurement,setting,value
MSLPSPRDGRTDGRTDCTR (SIS-1 peptide),Inhibition rate of each cytokine compared to CD150-stimulated EBV-t B cells (%) IL-10,IL-10,47.6%
same,Inhibition rate of each cytokine compared to CD150-stimulated EBV-t B cells (%) IL-2,IL-2,19.7%
same,Inhibition rate of each cytokine compared to CD150-stimulated EBV-t B cells (%) IL-12A,IL-12A,43.5%
same,Inhibition rate of each cytokine compared to CD150-stimulated EBV-t B cells (%) IL-6,IL-6,42.9%
same,Inhibition rate of each cytokine compared to CD150-stimulated EBV-t B cells (%) IL-4,IL-4,59.9%
same,Inhibition rate of each cytokine compared to CD150-stimulated EBV-t B cells (%) IL-17A,IL-17A,63.6%
same,onset of disease symptom,"[1]; after second immunization, versus CIA group",delayed
same,mouse weight,"[1]; after second immunization, intraperitoneal three times a week",maintained similar to that of Normal group
same,incidence of arthritis,"[1]; by the end of the test, intraperitoneal three times a week",87.5%
same,arthritis progression index,[1]; compared to the CIA group,reduced
same,swelling of ankle joints,[1]; compared to the CIA group,reduced
same,"destruction of joints and cartilage (histology, hematoxylin and eosin)","[1]; hind leg joint sections, 9th week",maintained at similar level as the normal mice
same,erythema increased by TPA application,[2],reduced
same,inflammatory response (thickness and weight of ear increased by TPA edema),[2],inhibited significantly
same,Inhibition rate of each cytokine compared to CD150-stimulated EBV-t B cells (%) IL-5,IL-5,30.3%
same,Inhibition rate of each cytokine compared to CD150-stimulated EBV-t B cells (%) IL-8,IL-8,53.8%
same,Inhibition rate of each cytokine compared to CD150-stimulated EBV-t B cells (%) IL-34,IL-34,43.4%
same,reduction of autoantibodies compared with control drug DEX,[3],as effective as or superior than
same,Inhibition rate of each cytokine compared to CD150-stimulated EBV-t B cells (%) IL-13,IL-13,37.6%
same,Inhibition rate of each cytokine compared to CD150-stimulated EBV-t B cells (%) IL-1A,IL-1A,22.7%
same,Inhibition rate of each cytokine compared to CD150-stimulated EBV-t B cells (%) IL-1B,IL-1B,25.4%
same,Inhibition rate of each cytokine compared to CD150-stimulated EBV-t B cells (%) GM-CSF,GM-CSF,60.5%
